Data on 2 molecules can be found in US12274689B2, “Compound for the management of feline diabetes” (INCREVET, INC., priority 2019, dated 2025).

The test system of one experiment is ZDF rats. In words: plasma glucose in male Zucker Diabetic Fatty rats, daily oral dosing (study 338). The format is in vivo. The conditions noted are these: ZDF rats; after 3 weeks; groups receiving 0.3, 1.0 and 3.0 mg kg^−1 (p<0.05, <0.01 and <0.01).
The test system of experiment [1] is cats with experimental diabetes. The conditions noted are these: subcutaneous injection of a suspension in olive oil; Lukens et al. 1943, 1961; cited from earlier work.

As for `OC[C@H]1O[C@@H](c2ccc(Cl)c(Cc3ccc(OCCOC4CC4)cc3)c2)[C@H](O)[C@@H](O)[C@@H]1O` [EGT0001474, bis-proline complex of (2S,3R,4R,5S,6R)-2-(4-chloro-3-(4-(2-cyclopropoxyethoxy)benzyl)phenyl)-6-(hydroxymethyl)tetrahydro-2H-pyran-3,4,5-triol], the “plasma glucose levels compared to vehicle control” value in the experiment with ZDF rats was “significantly lower”.
For `O=C(CCc1ccc(O)cc1)c1c(O)cc(O)cc1O[C@@H]1O[C@H](CO)[C@@H](O)[C@H](O)[C@H]1O` [phlorizin], the “hyperglycemia in diabetic cats” value in experiment [1] was “dramatic reduction of hyperglycemia”.
